ChEMBL document CHEMBL1201862, “PubChem BioAssay data set” (2004)
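How tested: cells in 96-well plates exposed to compound for 48 hours at five concentrations. GI50 = concentration required for 50% inhibition of growth.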 Activity calls are given as the source filed them. No stated cut-off is given here; in the data, active = GI50 up to about 1.1 µM and inactive = higher.

Experiments:
Assay in all cases: NCI anticancer screen, dose series, 48 h
[1] = test system: DMS-273
[2] = test system: KM-20L2
[3] = test system: LXFL 529
[4] = test system: M19-MEL
[5] = test system: RXF 631
[6] = test system: SNB-78
[7] = test system: XF498
[8] = test system: DMS-114
[9] = test system: HOP-18

Structure (SMILES) | GI50 [1] | GI50 [2] | GI50 [3] | GI50 [4] | GI50 [5] | GI50 [6] | GI50 [7] | GI50 [8] | GI50 [9]
COc1ccc2nc3ccccc3c(NCCN(CCCl)CCCl)c2c1 | 0.333 µM (active) | 0.474 µM (active) | 0.466 µM (active) | 1.27 µM (inactive) | 0.455 µM (active) | 0.769 µM (active) | 0.497 µM (active) |  | 
CCOc1ccc(/C=C\c2cc(OC)c(OC)c(OC)c2)cc1 | 0.0153 µM (active) | 0.000241 µM (active) | < 0.0001 µM (active) | 0.0191 µM (active) | 0.367 µM (active) | 0.000745 µM (active) | 0.000453 µM (active) | 0.00118 µM (active) | 
C[C@H](OCc1ccccc1)C(=O)N1CCS(=O)(=O)N2CCC[C@H]2C1=O |  | > 100 µM (inactive) | > 100 µM (inactive) | > 100 µM (inactive) | > 100 µM (inactive) | > 100 µM (inactive) |  | > 100 µM (inactive) | > 100 µM (inactive)
CCN(CC)c1ccc2c(c1)N=C1N=CC=CN1C2(c1ccc(N(C)C)cc1)c1ccc(N(C)C)cc1 | 25.8 µM (inactive) | 2.97 µM (inactive) | 3.84 µM (inactive) | 5.97 µM (inactive) | 3.83 µM (inactive) | 16.7 µM (inactive) | 3.72 µM (inactive) | 3.09 µM (inactive) | 3.72 µM (inactive)
CC(=O)OC1COC(n2c(=S)n(-c3ccccc3)c(=O)c3ccccc32)C(OC(C)=O)C1OC(C)=O (stereo not given) | 19.2 µM (inactive) | 4.29 µM (inactive) | 8.55 µM (inactive) |  | 47.9 µM (inactive) | > 100 µM (inactive) | 74.6 µM (inactive) | 40.6 µM (inactive) | > 100 µM (inactive)
COC[C@@H](/N=C/N1CCc2cc(OC)c(OC)cc2C1)C(C)(C)C |  | > 100 µM (inactive) | > 100 µM (inactive) | > 100 µM (inactive) | > 100 µM (inactive) |  | > 100 µM (inactive) | > 100 µM (inactive) | > 100 µM (inactive)
CN1C(=O)C(Cl)(C(Cl)(Cl)S(=O)(=O)O)C(=O)c2ccccc21.c1ccncc1 (stereo not given) |  | 19.5 µM (inactive) | > 100 µM (inactive) | > 100 µM (inactive) |  |  |  |  | 
COc1ccc(OC)c(CCc2ccccc2CC(=O)O)c1 | > 100 µM (inactive) | > 100 µM (inactive) | > 100 µM (inactive) | > 100 µM (inactive) |  | > 100 µM (inactive) | > 100 µM (inactive) | > 100 µM (inactive) | > 100 µM (inactive)
CS(=O)(=O)c1ccc(COP(N)(=O)N(CCCl)CCCl)cc1 (stereo not given) | > 100 µM (inactive) | > 100 µM (inactive) | > 100 µM (inactive) | > 100 µM (inactive) |  | > 100 µM (inactive) | > 100 µM (inactive) | > 100 µM (inactive) | 
C[C@H]1CC[C@H](NC(=O)N(CCCl)N=O)CC1 | 33.1 µM (inactive) | 56.4 µM (inactive) | 14.9 µM (inactive) | 41.3 µM (inactive) | 33.1 µM (inactive) | 35.2 µM (inactive) | 45.7 µM (inactive) | 36.5 µM (inactive) | 40.8 µM (inactive)
CNS(=O)(=O)NNS(=O)(=O)c1ccc2ccccc2c1 | > 100 µM (inactive) | > 100 µM (inactive) | > 100 µM (inactive) | > 100 µM (inactive) |  | > 100 µM (inactive) |  | > 100 µM (inactive) | > 100 µM (inactive)
Cc1ccccc1C(C#N)/C(=N/NC(=O)C(=O)NN)C(=O)Nc1cccc(C(F)(F)F)c1 (stereo not given) | > 100 µM (inactive) | > 100 µM (inactive) | > 100 µM (inactive) | > 100 µM (inactive) | > 100 µM (inactive) | > 100 µM (inactive) |  | > 100 µM (inactive) | > 100 µM (inactive)
c1ccc(-c2nnc3nn4c(-c5ccccc5)cnnc4c3c2-c2ccccc2)cc1 | > 100 µM (inactive) | 95.3 µM (inactive) | 42.7 µM (inactive) | 88.7 µM (inactive) | 18.7 µM (inactive) | 31.7 µM (inactive) | 27.5 µM (inactive) | 35.6 µM (inactive) | 53 µM (inactive)
COC(=O)C1=C(c2ccc(OC)c(OC)c2)OC(c2ccc(OC)c(OC)c2)C1 (stereo not given) | 54.7 µM (inactive) | 39.4 µM (inactive) | 16.2 µM (inactive) | 42.6 µM (inactive) |  | 28.7 µM (inactive) | 23.2 µM (inactive) | 23.2 µM (inactive) | 33.5 µM (inactive)
COc1ccc(-c2cc(=O)c3c(O)cc(O)cc3o2)c(OC)c1OC |  | 30.1 µM (inactive) | 49.3 µM (inactive) | 63 µM (inactive) |  |  | 63 µM (inactive) | 50.1 µM (inactive) | 
CC[C@H](C)C(=O)O[C@H]1C[C@@H](C)C=C2C=C[C@H](C)[C@H](CC[C@@H]3C[C@@H](O)CC(=O)O3)[C@H]21 [LOVASTATIN] | 8.69 µM (inactive) | > 30 µM (inactive) | 7.76 µM (inactive) | 2.42 µM (inactive) |  |  |  | > 30 µM (inactive) | > 30 µM (inactive)
O=C1[C@@H]2C3SC(c4ccccc43)[C@@H]2C(=O)N1c1ccccc1 | > 100 µM (inactive) | > 100 µM (inactive) | > 100 µM (inactive) | > 100 µM (inactive) |  | > 100 µM (inactive) | 61 µM (inactive) | > 100 µM (inactive) | > 90.4 µM (inactive)
CCCc1nn(C)c(CCC(=O)N(Cc2ccccc2)Cc2ccccc2)c1CC |  | > 100 µM (inactive) | > 100 µM (inactive) | > 100 µM (inactive) |  | > 100 µM (inactive) | > 100 µM (inactive) | > 100 µM (inactive) | > 100 µM (inactive)
CCC12CCCN(Cc3ccccc3)C1c1c(n(C)c3ccccc13)C(C(=O)OC)C2 (stereo not given) | 84.5 µM (inactive) | 130 µM (inactive) | 96.6 µM (inactive) | 112 µM (inactive) | 111 µM (inactive) |  | 36.8 µM (inactive) | 90.6 µM (inactive) | 
COc1ccc(/C=N/N=C(\N)NO)cc1OC | 48.9 µM (inactive) | 37.8 µM (inactive) | 33.9 µM (inactive) | 44.8 µM (inactive) |  | > 100 µM (inactive) | 35.1 µM (inactive) | 28.7 µM (inactive) | 
COC(=O)/C=C1/CCC2[C@@H](C(=O)CC3[C@]2(C)CCC[C@@]3(C)C(=O)OC)C1C (stereo not given in full) | 12.7 µM (inactive) | 13.1 µM (inactive) | 6.22 µM (inactive) | 15.5 µM (inactive) | 15.5 µM (inactive) | 10 µM (inactive) | 15.3 µM (inactive) | 10.3 µM (inactive) | 14.4 µM (inactive)
COc1cc2c(c(OC)c1OC)-c1ccc(SC)c(=O)cc1C(CC(=O)Oc1cccc(F)c1)C2 (stereo not given) | 0.214 µM (active) | 0.0813 µM (active) | 0.316 µM (active) | 0.263 µM (active) | 0.115 µM (active) | 0.237 µM (active) | 0.344 µM (active) | 0.24 µM (active) | > 62.2 µM (inactive)
CCN1CCC(O)(c2ccc(Cl)cc2)C(C(=O)c2ccc(Cl)cc2)C1 (stereo not given) | > 100 µM (inactive) | > 100 µM (inactive) | > 100 µM (inactive) | > 100 µM (inactive) |  | > 100 µM (inactive) | > 100 µM (inactive) |  | 22.6 µM (inactive)
CC(C)C(Nc1c2ccccc2nc2ccccc12)C(=O)O (stereo not given) | 68.4 µM (inactive) | > 100 µM (inactive) | > 100 µM (inactive) | > 100 µM (inactive) |  |  | 3.08 µM (inactive) |  | 
CC[N+]1(C)CCC(O)(/C=C/c2ccccc2)C(C(=O)/C=C/c2ccccc2)C1 (stereo not given) | 4.72 µM (inactive) | 18.3 µM (inactive) | 2.79 µM (inactive) | 9.98 µM (inactive) |  | 24 µM (inactive) | 8.43 µM (inactive) | 6.62 µM (inactive) | 16.6 µM (inactive)
S=P(N1CC1)(N1CC1)N1CC1 [THIOTEPA] | 21.3 µM (inactive) | 175 µM (inactive) | 146 µM (inactive) | 142 µM (inactive) |  | 385 µM (inactive) | 95.1 µM (inactive) | 35.4 µM (inactive) | 231 µM (inactive)
Cc1ccccc1C1=C/C(=C(\SS/C(C(=O)c2ccc(OCC(=O)O)c(Cl)c2Cl)=C2\C=C(c3ccccc3C)SS2)C(=O)c2ccc(OCC(=O)O)c(Cl)c2Cl)SS1 | 20 µM (inactive) | 37.9 µM (inactive) | 4.45 µM (inactive) | 21.3 µM (inactive) | 25.9 µM (inactive) | 14.4 µM (inactive) | 19.2 µM (inactive) | 9.04 µM (inactive) | 16.2 µM (inactive)
O=[N+]([O-])/C=C/c1ccc(Cl)cc1Cl | 11 µM (inactive) | 18.7 µM (inactive) | 13.8 µM (inactive) | 5.77 µM (inactive) |  |  |  | 17.8 µM (inactive) | 
